Source: US20060074109A1, “Use of inhibitors of 24-hydroxylase in the treatment of cancer” (Sapphire Therapeutics, Inc., priority 2004, published 2006)

Tests used:
[1] = test system: SK-OV-3 cells; assay: Cell growth assay, crystal violet, 11 days; assay type: cell-based, human
Protocol: (§1) The human ovarian adenocarcinoma cell line, OVCAR-3 (ATCC, Manassas, Va.) was maintained, as recommended by the supplier, in RPMI 1640 medium (Sigma Aldrich, St. Louis, Mo.) supplemented with 10% FBS, 10 μg/ml insulin, 0.25% glucose and antibiotics (100 IU/ml penicillin, 100 μg/ml streptomycin). Human ovarian adenocarcinoma cell lines UT-OC-1, UT-OC-2, UT-OC-3, UT-OC-4, UT-OC-5 (Grenman, S., Engblom, P., Rantanen, V., Klemi, P. and Isola, J., “Cytogenetic Characterization of Five New Ovarian Carcinoma Cell Lines,” Acta Obstet. Gynecol. Scand., 76:83 (1997)) and SK-OV-3 and a human keratinocyte cell line HaCaT were grown in DMEM (Sigma Aldrich) with 10% FBS and antibiotics (100 IU/ml penicillin, 100 μg/ml streptomycin), and monkey kidney COS cells were maintained in DMEM/F12 (Sigma Aldrich) with 5% FBS. All cell lines were kept at 37° C. in a humidified 95% air/5% CO2 incubator.
(§2) When OVCAR-3 cells were on the logarithmic growth phase (70% confluent) the growth assay was started. For cell growth assay, 2,000 cell/200 μl/well were plated on 96-well culture plates. […] Ethanol was used as a vehicle, and it was also included in the control. The medium containing ethanol vehicle and/or hormones were changed to a fresh one every third day. Cell growth samples were taken 0, 1, 3, 5, 7, 9 and 11 days after the treatment.
(§3) Relative cell numbers were quantified as described previously (Kueng W, Silber E, Eppenberger U. Quantification of cells cultured on 96-well plates. Anal. Biochem., 182:16-9 (1989)). Cells were fixed on the bottom of the wells by addition of 10 μl of 11% glutaraldehyde solution in 0.1% phosphate buffer to 100 μl of medium. The plate was shaken 500 cycles/min for 15 min, washed 3 times by submersion in de-ionised water and air-dried. Fixed cells were stained with 0.1% solution of crystal violet dissolved in de-ionised water. After 20 min incubation, excess dye was removed by carefully washing with de-ionised water. The plate was air-dried prior to a bound dye solubilisation in 100 μl of 10% acetic acid. Relative cell number was given as absorbance units by measuring the optical density (590 nm) from each well using Victor 1420 multilabel counter (Wallac, Turku, Finland). Six determinations were used to calculate the mean optical density ±SD in each concentration at each time point. The absorbance value of day 0 (an overnight culture of 2,000 cells/well) was set as 0 by subtracting it from each value obtained from adjacent time-point measurements (days 1-11), and based on these values growth curves were created. Experiments were repeated 3-5 times. Day 11 was used to compare the effect of hormone treatments and 24OHase inhibitor. Statistical analyses were done using Student's t-test.
(§4) Cell growth samples were obtained after 11 days treatment.

[2] = test system: UT-OC-1 cells; assay: Cell growth assay, crystal violet, 11 days; assay type: cell-based, human
Protocol: as §1, §2, §3, §4

[3] = test system: UT-OC-2 cells; assay: Cell growth assay, crystal violet, 11 days; assay type: cell-based, human; conditions: 200 nM VID 400 combined with vitamin D or retinoid compounds
Protocol: as §1, §2, §3, §4

[4] = test system: UT-OC-3 cells; assay: Cell growth assay, crystal violet, 11 days; assay type: cell-based, human; conditions: 200 nM VID 400 combined with vitamin D or retinoid compounds
Protocol: as §1, §2, §3, §4

[5] = test system: UT-OC-4 cells; assay: Cell growth assay, crystal violet, 11 days; assay type: cell-based, human
Protocol: as §1, §2, §3, §4

[6] = test system: OVCAR-3 ovarian cancer cells; assay: Cell growth, methylene blue uptake (Experiment VI); assay type: cell-based, human; conditions: 200 nM VID400 with calcitriol
Protocol: (§5) Culture conditions were the same as for Experiment I. Cell growth was measured using uptake of methylene blue (0.5% in 50% ethanol), followed by air drying and release of the dye in 1% sodium N-lauroyl sarcosine in PBS.

[7] = test system: CWR22Rv-1 prostate cancer cells; assay: Cell growth, methylene blue uptake (Experiment VI); assay type: cell-based; conditions: VID400+calcitriol
Protocol: as §5

[8] = test system: DU145 prostate cancer cells; assay: Cell growth, methylene blue uptake (Experiment VI); assay type: cell-based; conditions: VID400+calcitriol
Protocol: as §5

[9] = test system: PC3 prostate cancer cells; assay: Cell growth, methylene blue uptake (Experiment VI); assay type: cell-based; conditions: VID400+calcitriol
Protocol: as §5

[10] = target: T1, 24-hydroxylase (Homo sapiens, UniProt Q07973); conditions: Schuster et al., J. Cell. Biochem. 88:372-380 (2003); cited from earlier work
T1 sequence (Q07973 36-514): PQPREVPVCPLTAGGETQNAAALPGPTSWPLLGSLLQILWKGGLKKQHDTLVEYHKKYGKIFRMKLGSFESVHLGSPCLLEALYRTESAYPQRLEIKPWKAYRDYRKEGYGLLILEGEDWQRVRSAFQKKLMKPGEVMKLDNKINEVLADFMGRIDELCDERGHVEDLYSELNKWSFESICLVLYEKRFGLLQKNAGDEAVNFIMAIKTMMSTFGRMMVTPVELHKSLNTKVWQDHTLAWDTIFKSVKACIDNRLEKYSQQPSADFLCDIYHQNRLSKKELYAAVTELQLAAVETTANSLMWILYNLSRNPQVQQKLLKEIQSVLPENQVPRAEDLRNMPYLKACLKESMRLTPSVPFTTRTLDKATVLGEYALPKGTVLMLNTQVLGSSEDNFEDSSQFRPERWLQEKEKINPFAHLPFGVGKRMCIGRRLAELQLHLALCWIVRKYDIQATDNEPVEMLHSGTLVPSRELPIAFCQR

## O=C(NC[C@@H](c1ccccc1)n1ccnc1)c1ccc(-c2ccc(Cl)cc2)cc1 [VID400, 2-(R)-4′-Chlorobiphenyl-4-carboxylic acid (2-imidazol-1-yl-2-phenyl-ethyl)-amide]
[1]; 200 nM VID 400 combined with 9-CRA
  effect on growth inhibition: potentiated this effect
[1]; 200 nM VID 400 combined with vitamin D compounds
  effect on cell growth: slightly inhibitory effect on growth
[2]; 200 nM VID 400 combined with 100 nM EB 1089, 11 days
  inhibition of cell growth: did so
[2]; 200 nM VID 400 combined with 10 μM 9-CRA, 11 days
  effect on growth inhibition: augmented the growth inhibition
[2]; 200 nM VID 400 combined with 10 μM ATRA, 11 days
  augmentation of growth inhibition: not seen
[3]
  effect on cell growth: growth inhibition was seen
[4]
  effect on cell growth: growth inhibition was seen
[5]; 200 nM VID 400 combined with 100 nM 1,25(OH)2D3 or EB 1089, 11 days
  effect on cell growth: cell growth was inhibited
[5]; 200 nM VID 400 combined with 10 μM ATRA or 9-CRA, 11 days
  effect on growth inhibition: potentiated this effect
[6]
  effect on cell growth: produced a further inhibition which was synergistic with calcitriol
[7]
  effect on cell growth: synergistic inhibition of growth
[8]
  effect on cell growth: synergistic inhibition of growth
[9]
  effect on cell growth: synergistic inhibition of growth
[10]
  inhibition of 24-hydroxylase: potent inhibitors of 24-hydroxylase
